# Assay results: US8658685B2, “Methods for treatment of kallikrein-related disorders” (Activesite Pharmaceuticals, Inc., priority 2008, dated 2014)
# pKi: −log10 of the molar value.
# Tests used:
# [1] = target: purified human plasma kallikrein (PK) (Homo sapiens, UniProt P03952); assay: Inhibitor profile of ASP-440: plasma kallikrein; type: biochemical
# Factor XIIa = target: T1, Factor XIIa (Homo sapiens, UniProt P00748); assay: Inhibitor profile of ASP-440: Factor XIIa; type: biochemical
# T1 sequence (P00748 373-615 limits assumed): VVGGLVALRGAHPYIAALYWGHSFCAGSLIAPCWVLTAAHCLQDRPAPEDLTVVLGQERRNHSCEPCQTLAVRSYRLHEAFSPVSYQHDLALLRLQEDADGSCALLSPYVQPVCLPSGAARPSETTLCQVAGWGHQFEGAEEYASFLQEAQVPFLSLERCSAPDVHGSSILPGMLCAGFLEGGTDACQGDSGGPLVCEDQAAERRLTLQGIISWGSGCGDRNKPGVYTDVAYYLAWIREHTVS
# Factor XIa = Factor XIa (Homo sapiens, UniProt P03951); assay: Inhibitor profile of ASP-440: Factor XIa; type: biochemical
# Factor XIa, sequence (P03951 388-625 limits assumed): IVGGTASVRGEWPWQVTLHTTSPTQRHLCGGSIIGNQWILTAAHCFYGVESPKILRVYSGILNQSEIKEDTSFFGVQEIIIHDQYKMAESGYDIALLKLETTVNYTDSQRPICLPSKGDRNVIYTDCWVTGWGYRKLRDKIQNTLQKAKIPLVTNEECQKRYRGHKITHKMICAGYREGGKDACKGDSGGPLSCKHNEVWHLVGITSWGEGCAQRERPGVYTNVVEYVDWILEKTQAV
# Factor XIa, sequence (P03951 19-387 partner limits assumed): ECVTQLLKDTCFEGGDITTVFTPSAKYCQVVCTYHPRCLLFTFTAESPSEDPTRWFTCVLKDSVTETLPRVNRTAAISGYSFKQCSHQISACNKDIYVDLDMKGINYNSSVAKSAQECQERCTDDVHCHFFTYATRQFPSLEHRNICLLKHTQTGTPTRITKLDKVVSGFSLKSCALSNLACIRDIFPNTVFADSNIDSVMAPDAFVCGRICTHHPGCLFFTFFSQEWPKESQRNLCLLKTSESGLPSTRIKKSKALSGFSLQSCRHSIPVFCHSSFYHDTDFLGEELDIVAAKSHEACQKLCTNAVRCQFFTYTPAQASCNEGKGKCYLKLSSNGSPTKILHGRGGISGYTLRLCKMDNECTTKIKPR
# Factor IXa = Factor IXa (Homo sapiens, UniProt P00740); assay: Inhibitor profile of ASP-440: Factor IXa; type: biochemical
# Factor IXa, sequence (P00740 227-461 limits assumed): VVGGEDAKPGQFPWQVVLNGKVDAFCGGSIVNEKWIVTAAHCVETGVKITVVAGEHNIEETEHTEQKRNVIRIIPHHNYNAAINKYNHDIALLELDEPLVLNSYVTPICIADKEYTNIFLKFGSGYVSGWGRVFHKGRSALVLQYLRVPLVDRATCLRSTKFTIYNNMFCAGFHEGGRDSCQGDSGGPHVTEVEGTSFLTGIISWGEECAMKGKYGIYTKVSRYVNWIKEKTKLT
# Factor IXa, sequence (P00740 47-191 partner limits assumed): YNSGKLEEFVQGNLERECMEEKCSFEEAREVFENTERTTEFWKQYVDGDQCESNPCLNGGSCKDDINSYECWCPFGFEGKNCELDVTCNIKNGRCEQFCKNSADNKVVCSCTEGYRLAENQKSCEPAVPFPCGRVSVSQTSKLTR
# [2] = target: Tissue Factor-Factor VIIa (Homo sapiens, UniProt P08709); assay: Inhibitor profile of ASP-440: Tissue Factor-Factor VIIa; type: biochemical
# Tissue Factor-Factor VIIa, sequence (P08709 213-466 limits assumed): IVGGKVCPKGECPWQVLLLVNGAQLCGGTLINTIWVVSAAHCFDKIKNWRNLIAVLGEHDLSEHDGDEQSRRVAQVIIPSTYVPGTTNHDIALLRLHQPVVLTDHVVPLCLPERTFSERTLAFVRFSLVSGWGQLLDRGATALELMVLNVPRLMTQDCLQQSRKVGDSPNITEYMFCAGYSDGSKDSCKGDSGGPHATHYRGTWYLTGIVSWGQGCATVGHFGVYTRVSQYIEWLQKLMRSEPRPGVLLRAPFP
# Tissue Factor-Factor VIIa, sequence (P08709 61-212 partner limits assumed): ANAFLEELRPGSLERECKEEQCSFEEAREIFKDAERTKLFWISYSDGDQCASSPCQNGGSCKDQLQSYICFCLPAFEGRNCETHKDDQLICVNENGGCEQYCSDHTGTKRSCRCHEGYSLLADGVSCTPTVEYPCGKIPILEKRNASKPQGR
# Tissue Factor-Factor VIIa, sequence (P13726 33-295 partner): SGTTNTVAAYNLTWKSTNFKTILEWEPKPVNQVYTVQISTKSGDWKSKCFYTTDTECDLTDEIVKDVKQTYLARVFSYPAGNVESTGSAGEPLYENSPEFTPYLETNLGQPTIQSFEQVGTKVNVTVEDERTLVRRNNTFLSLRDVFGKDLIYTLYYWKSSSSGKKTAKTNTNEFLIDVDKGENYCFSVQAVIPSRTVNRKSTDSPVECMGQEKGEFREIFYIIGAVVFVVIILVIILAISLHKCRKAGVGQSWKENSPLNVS
# Factor Xa = Factor Xa (Homo sapiens, UniProt P00742); assay: Inhibitor profile of ASP-440: Factor Xa; type: biochemical
# Factor Xa, sequence (P00742 235-488 limits assumed): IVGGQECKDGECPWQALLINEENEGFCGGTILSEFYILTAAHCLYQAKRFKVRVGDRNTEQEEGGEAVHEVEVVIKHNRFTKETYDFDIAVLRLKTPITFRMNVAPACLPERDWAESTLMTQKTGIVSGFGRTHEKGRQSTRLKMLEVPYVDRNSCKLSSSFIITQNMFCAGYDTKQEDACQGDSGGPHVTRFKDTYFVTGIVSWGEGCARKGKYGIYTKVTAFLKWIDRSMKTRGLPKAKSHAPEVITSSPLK
# Factor Xa, sequence (P00742 41-179 partner limits assumed): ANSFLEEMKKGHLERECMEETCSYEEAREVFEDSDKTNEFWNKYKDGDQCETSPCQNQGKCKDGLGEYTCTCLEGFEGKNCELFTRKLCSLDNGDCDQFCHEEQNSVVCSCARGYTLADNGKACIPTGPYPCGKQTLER
# Thrombin = Thrombin (Homo sapiens, UniProt P00734); assay: Inhibitor profile of ASP-440: Thrombin; type: biochemical
# Plasmin = Plasmin (Homo sapiens, UniProt P00747); assay: Inhibitor profile of ASP-440: Plasmin; type: biochemical
# Plasmin, sequence (P00747 581-810 limits assumed, species assumed): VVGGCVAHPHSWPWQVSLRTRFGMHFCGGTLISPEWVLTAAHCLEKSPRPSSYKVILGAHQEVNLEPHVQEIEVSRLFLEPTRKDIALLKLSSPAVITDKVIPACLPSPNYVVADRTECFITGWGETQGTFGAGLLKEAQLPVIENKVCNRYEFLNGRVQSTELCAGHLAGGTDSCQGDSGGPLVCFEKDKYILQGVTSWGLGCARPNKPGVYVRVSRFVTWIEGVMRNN
# Plasmin, sequence (P00747 97-580 partner limits assumed, species assumed): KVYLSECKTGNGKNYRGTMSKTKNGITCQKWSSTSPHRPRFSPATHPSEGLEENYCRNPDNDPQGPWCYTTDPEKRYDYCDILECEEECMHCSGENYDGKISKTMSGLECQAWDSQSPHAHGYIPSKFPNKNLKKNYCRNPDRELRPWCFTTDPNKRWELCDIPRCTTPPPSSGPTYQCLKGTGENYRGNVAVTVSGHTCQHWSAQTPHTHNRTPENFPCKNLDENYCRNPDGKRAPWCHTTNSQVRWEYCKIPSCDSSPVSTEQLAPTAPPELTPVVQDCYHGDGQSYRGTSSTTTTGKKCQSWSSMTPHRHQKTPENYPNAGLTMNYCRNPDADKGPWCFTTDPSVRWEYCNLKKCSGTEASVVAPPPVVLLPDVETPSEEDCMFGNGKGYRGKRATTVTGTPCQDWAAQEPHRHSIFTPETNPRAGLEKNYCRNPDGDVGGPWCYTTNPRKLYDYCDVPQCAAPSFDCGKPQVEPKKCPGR
# [3] = target: Porcine Pancreatic Kallikrein (Sus scrofa, UniProt P00752); assay: Inhibitor profile of ASP-440: Porcine Pancreatic Kallikrein; type: biochemical
# Porcine Pancreatic Kallikrein, sequence (P00752 8-246): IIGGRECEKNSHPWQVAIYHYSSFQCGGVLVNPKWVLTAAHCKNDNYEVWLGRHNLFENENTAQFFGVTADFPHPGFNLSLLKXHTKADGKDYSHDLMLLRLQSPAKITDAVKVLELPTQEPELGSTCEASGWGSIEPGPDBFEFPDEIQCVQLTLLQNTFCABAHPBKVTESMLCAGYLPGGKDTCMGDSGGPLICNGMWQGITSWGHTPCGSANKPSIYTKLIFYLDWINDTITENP
# [4] = target: T2, endogenous PK in human plasma (Homo sapiens, UniProt P03952); assay: Inhibition of endogenous PK in human plasma; type: biochemical; conditions: read-out: Kiapp
# T2 construct: from tissue; host or cells: human plasma
# T2 sequence (P03952 20-638): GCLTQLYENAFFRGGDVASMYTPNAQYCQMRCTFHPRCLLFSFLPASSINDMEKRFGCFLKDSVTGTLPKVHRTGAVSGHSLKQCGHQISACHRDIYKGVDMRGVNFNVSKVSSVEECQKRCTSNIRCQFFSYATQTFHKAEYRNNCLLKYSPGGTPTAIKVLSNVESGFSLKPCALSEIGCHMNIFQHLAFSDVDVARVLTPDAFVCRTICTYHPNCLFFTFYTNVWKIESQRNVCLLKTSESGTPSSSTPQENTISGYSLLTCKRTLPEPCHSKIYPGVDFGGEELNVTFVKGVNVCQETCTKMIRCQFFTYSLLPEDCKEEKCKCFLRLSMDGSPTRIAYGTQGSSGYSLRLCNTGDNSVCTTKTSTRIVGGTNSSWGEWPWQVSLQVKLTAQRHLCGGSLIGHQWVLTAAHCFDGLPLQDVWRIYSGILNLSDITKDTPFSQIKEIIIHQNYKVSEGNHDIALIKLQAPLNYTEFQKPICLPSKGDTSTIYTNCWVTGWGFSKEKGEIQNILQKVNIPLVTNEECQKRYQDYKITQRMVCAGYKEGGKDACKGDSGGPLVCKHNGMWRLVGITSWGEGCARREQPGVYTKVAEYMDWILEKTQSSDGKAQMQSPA
# [5] = target: T3, endogenous PK in rat plasma (Rattus norvegicus, UniProt P14272); assay: Inhibition of endogenous PK in rat plasma; type: biochemical; conditions: read-out: Kiapp
# T3 construct: from tissue; host or cells: rat plasma
# T3 sequence (P14272 20-638): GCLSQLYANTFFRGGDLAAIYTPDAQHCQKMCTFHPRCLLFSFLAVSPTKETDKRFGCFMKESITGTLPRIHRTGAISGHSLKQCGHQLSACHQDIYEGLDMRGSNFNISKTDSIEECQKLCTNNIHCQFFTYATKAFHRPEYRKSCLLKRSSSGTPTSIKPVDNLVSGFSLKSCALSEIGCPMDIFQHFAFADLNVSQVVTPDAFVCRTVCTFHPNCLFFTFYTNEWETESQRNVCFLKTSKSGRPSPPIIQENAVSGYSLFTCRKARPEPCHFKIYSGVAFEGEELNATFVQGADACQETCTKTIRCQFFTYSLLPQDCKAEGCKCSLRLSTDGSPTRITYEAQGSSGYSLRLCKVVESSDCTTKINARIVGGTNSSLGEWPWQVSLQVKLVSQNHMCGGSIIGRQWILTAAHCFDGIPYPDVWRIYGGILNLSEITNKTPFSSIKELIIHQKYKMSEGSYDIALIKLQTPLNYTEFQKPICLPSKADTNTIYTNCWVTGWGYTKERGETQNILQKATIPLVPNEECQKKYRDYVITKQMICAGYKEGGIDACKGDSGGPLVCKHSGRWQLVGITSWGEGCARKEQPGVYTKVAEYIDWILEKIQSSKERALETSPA
# [6] = system: intrinsic coagulation pathway; assay: Plasma coagulation time, activation with Actin FS reagent; type: biochemical; conditions: at 10 μM; plasma activated with Actin FS reagent
# [7] = system: recombinant tissue factor; assay: Plasma coagulation time, activation with Innovin reagent; type: biochemical; conditions: plasma activated by Innovin reagent; concentrations up to 30 μM
# [8] = system: AngII-induced retinal vascular permeability; assay: AngII-induced retinal vascular permeability in rats; type: in vivo, rat; conditions: AngII and ASP-440 via 2 Alzet pumps for 7 days; Evan's blue dye method
# Experimental: Rats were implanted with a single subcutaneous osmotic pump containing Ang II or two pumps containing AngII and ASP-465, as indicated. RVP was measured using vitreous fluorophotometry after 3 days.
# RVP was measured using Evan's blue dye method after 7 days.
# We examined the effect of the kallikrein inhibitor ASP-465 on RVP induced by angiotensin II (AngII).
# [9] = system: diabetes-induced retinal vascular permeability; assay: Diabetes-induced retinal vascular permeability in rats; type: in vivo, rat; conditions: STZ-induced diabetes, 28 days; subcutaneous osmotic pump; Evan's blue dye method
# astrocytes [10] = assay: Plasma kallikrein-induced ERK phosphorylation in astrocytes; type: cell-based; conditions: astrocytes exposed to plasma kallikrein
# Text: (§1) We have also studied the effects of plasma kallikrein pathway activation on astrocytes. […] Exposure of astrocytes to plasma kallikrein potently stimulated ERK phosphorylation, and this action of kallikrein on astrocytes is not affected by B2-R antagonism (Hoe140). The effect of kallikrein on astrocytes was blocked by leupeptin, a protease inhibitor and C1-INH (data not shown). […] This is in contrast to the bradykinin effect, which is rapid and transient (data not shown). Plasma kallikrein's effect on ERK phosphorylation in astrocytes is dose dependent, reaching a maximal effect at 100 nM kallikrein (data not shown). […] In addition, plasma kallikrein binding to astrocytes was blocked by AS-440 (FIG. 9B) and C1-INH (data not shown).
# astrocytes [11] = assay: Plasma kallikrein binding to astrocytes; type: cell-based
# Text: as §1
# blood-induced hematoma = assay: Hematoma after intracerebral infusion of autologous blood in diabetic rats; type: in vivo, Sprague-Dawley rats; conditions: systemic treatment, 48 h after intracerebral infusion of autologous blood
# Experimental: We have compared the response to intracerebral infusion of blood in Sprague-Dawley rats with 1 mo of STZ-induced diabetes with age matched non-diabetic control rats. Fifty μL of autologous whole blood was collected from the tail vein and immediately infused 1 mm anterior, 4 mm lateral and 6 mm in depth to the bregma using a 30 gauge needle at 20 μL per minute. The infusion needle was removed 10 min after injection and the burr hole was sealed with bone wax. Forty-eight hours after intracerebral injection, the animals were perfused with saline and surface hematoma area was examined by measurement of hematoma area relative to total hemisphere area.
# [12] = system: plasma kallikrein-induced hematoma; assay: Hematoma after intracerebral injection of purified activated plasma kallikrein in diabetic rats; type: in vivo, rat; conditions: 2 hrs following plasma kallikrein injection, 24 hrs pretreatment via subcutaneous osmotic pump
# Text: The increased response of diabetic rats to the model of intracerebral hemorrhage described above could be due to factors within the blood or due to an increased response in the neurovascular tissue. To evaluate the latter, we performed intracerebral injections of purified activated plasma kallikrein in rats with 1 mo of STZ-induced diabetes or age-matched non-diabetic controls. The contralateral hemisphere was subjected to an equivalent injection with saline vehicle. […]
# [13] = system: ischemia-induced cerebral vascular permeability and infarct; assay: Middle cerebral artery occlusion (MCAO) in rats with 4 weeks of STZ-induced diabetes; type: in vivo, rat; conditions: vs diabetic rats receiving vehicle
# Experimental: Rats were implanted with a single subcutaneous osmotic pump containing ASP-440, as indicated. Cerebral vascular permeability was measured using Evan's blue dye method 2 hours after occlusion.
# Infarct area was measured using Triphenyltetrazolium chloride stain after 24 hours of permanent occlusion.
# The effect of diabetes on cerebral vascular permeability induced by ischemia was examined in rats subjected to middle cerebral artery occlusion (MCAO). […] Cerebral vascular permeability following MCAO was increased in the diabetic rats compared with nondiabetic rats (FIG. 14). […] MCAO-induced infarct area is increased in rats with 4 weeks of diabetes compare with nondiabetic rats (FIG. 15).
# purified human plasma kallikrein (PK), sequence (P03952 20-638): as the sequence (P03952 20-638) above
smiles,measurement,setting,value
"N=C(N)c1ccc(CNC(=O)c2cnn(Cc3ccccc3)c2)cc1 [ASP-440, 1-Benzyl-1H-pyrazole-4-carboxylic acid 4-carbamimidoyl-benzylamide]",pKi,[1]; PlasmaKallikrein,7.00
same,inhibition at 1 µM,[1]; predicted inhibition at 1 μM,91%
same,inhibition at 10 µM,[1]; predicted inhibition at 10 μM,99%
same,mode of inhibition,[1]; purified human plasma kallikrein,competitive and reversible
same,pKi,Factor XIIa; Factor XIIa,< 4.00
same,inhibition at 1 µM,Factor XIIa; predicted inhibition at 1 μM,0%
same,inhibition at 10 µM,Factor XIIa; predicted inhibition at 10 μM,1%
same,pKi,Factor XIa; Factor XIa,3.92
same,inhibition at 1 µM,Factor XIa; predicted inhibition at 1 μM,0%
same,inhibition at 10 µM,Factor XIa; predicted inhibition at 10 μM,7%
same,pKi,Factor IXa; Factor IXa,< 4.00
same,inhibition at 1 µM,Factor IXa; predicted inhibition at 1 μM,0%
same,inhibition at 10 µM,Factor IXa; predicted inhibition at 10 μM,0%
same,pKi,[2]; Tissue Factor-Factor VIIa,3.80
same,inhibition at 1 µM,[2]; predicted inhibition at 1 μM,0%
same,inhibition at 10 µM,[2]; predicted inhibition at 10 μM,6%
same,pKi,Factor Xa; Factor Xa,4.07
same,inhibition at 1 µM,Factor Xa; predicted inhibition at 1 μM,0%
same,inhibition at 10 µM,Factor Xa; predicted inhibition at 10 μM,11%
same,pKi,Thrombin; Thrombin,3.96
same,inhibition at 1 µM,Thrombin; predicted inhibition at 1 μM,1%
same,inhibition at 10 µM,Thrombin; predicted inhibition at 10 μM,9%
same,pKi,Plasmin; Plasmin,4.80
same,inhibition at 1 µM,Plasmin; predicted inhibition at 1 μM,6%
same,inhibition at 10 µM,Plasmin; predicted inhibition at 10 μM,38%
same,pKi,[3]; Porcine Pancreatic Kallikrein,< 4.00
same,inhibition at 1 µM,[3]; predicted inhibition at 1 μM,0%
same,inhibition at 10 µM,[3]; predicted inhibition at 10 μM,0%
same,pKi,[4],6.70
same,pKi,[5],6.40
same,prolongation of coagulation time in plasma,[6],~50%
same,effect on coagulation time,[7],without measurable effect
same,RVP,[8],normal levels of RVP
same,RVP,[9],normal levels of RVP
same,effect of kallikrein on ERK phosphorylation,astrocytes [10],blocked
same,plasma kallikrein binding to astrocytes,astrocytes [11],blocked
same,hematoma area,blood-induced hematoma,reduced hematoma area in diabetic rats to a level comparable to that observed in non-diabetic controls
same,hematoma response,[12],decreased
same,reduction of cerebral vascular permeability,"[13]; 3 days pretreatment via subcutaneous osmotic pump, MCAO for 2 hrs",about 50%
same,decrease of infarct area,"[13]; treatment 3 days prior to MCAO, 24 hours of permanent occlusion",about 40%
